According to paper PMC12814364 (Journal of the American Chemical Society, 2025):
Entries after “also recorded” stand apart in the source; their conditions may differ. Read-outs that look alike come from different tables or passages of the source.

Experiments:
HBHA110–199 [1] = molecular target: T1, HBHA110–199 (Mycobacterium tuberculosis, UniProt P9WIP9); experiment: ITC binding of HS hexadecasaccharides with HBHA110–199
full-length HBHA = molecular target: T2, full-length HBHA (Mycobacterium tuberculosis, UniProt P9WIP9); experiment: Far-UV circular dichroism of full-length HBHA with added sugar; details: varying equivalents added; negative control
T2 sequence (P9WIP9 1-199): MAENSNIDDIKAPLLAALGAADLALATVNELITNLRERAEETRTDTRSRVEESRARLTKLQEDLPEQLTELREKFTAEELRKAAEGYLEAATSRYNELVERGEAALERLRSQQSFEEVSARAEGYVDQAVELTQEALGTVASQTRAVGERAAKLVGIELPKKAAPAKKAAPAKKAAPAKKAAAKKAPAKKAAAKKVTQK

HBHA110–199 [2] = molecular target: T1, HBHA110–199; details: cited from earlier work

## CC(=O)N[C@H]1[C@@H](O[C@H]2[C@H](O)[C@@H](O)[C@H]3OC[C@@H]2O3)O[C@H](CO)[C@@H](O[C@@H]2O[C@@H](C(=O)O)[C@@H](O[C@H]3O[C@H](CO)[C@@H](O[C@@H]4O[C@@H](C(=O)O)[C@@H](O[C@H]5O[C@H](CO)[C@@H](O[C@@H]6O[C@@H](C(=O)O)[C@@H](O[C@H]7O[C@H](CO)[C@@H](O[C@@H]8O[C@@H](C(=O)O)[C@@H](O[C@H]9O[C@H](CO)[C@@H](O[C@@H]%10O[C@@H](C(=O)O)[C@@H](O[C@H]%11O[C@H](CO)[C@@H](O[C@@H]%12O[C@@H](C(=O)O)[C@@H](O[C@H]%13O[C@H](CO)[C@@H](O[C@@H]%14O[C@@H](C(=O)O)[C@@H](O[C@H]%15O[C@H](CO)[C@@H](O)[C@H](O)[C@H]%15NC(C)=O)[C@H](O)[C@H]%14O)[C@H](O)[C@H]%13NC(C)=O)[C@H](O)[C@H]%12O)[C@H](O)[C@H]%11NC(C)=O)[C@H](O)[C@H]%10O)[C@H](O)[C@H]9NC(C)=O)[C@H](O)[C@H]8O)[C@H](O)[C@H]7NC(C)=O)[C@H](O)[C@H]6O)[C@H](O)[C@H]5NC(C)=O)[C@H](O)[C@H]4O)[C@H](O)[C@H]3NC(C)=O)[C@H](O)[C@H]2O)[C@@H]1O [compound 20]
HBHA110–199 [1]; Tris buffer pH 7.6, 25 °C, two trials, average ± standard deviation
  dissociation constant, KD: no detectable binding; also recorded: no binding detected
full-length HBHA
  conformational change of full-length HBHA (CD): did not induce any significant conformational change

## O=C(O)[C@@H]1O[C@@H](O[C@H]2[C@H](O)[C@@H](NS(=O)(=O)O)[C@@H](O[C@H]3[C@H](O)[C@@H](OS(=O)(=O)O)[C@H]4OC[C@@H]3O4)O[C@@H]2COS(=O)(=O)O)[C@H](OS(=O)(=O)O)[C@@H](O)[C@@H]1O[C@H]1O[C@H](COS(=O)(=O)O)[C@@H](O[C@@H]2O[C@@H](C(=O)O)[C@@H](O[C@H]3O[C@H](COS(=O)(=O)O)[C@@H](O[C@@H]4O[C@@H](C(=O)O)[C@@H](O[C@H]5O[C@H](COS(=O)(=O)O)[C@@H](O)[C@H](O)[C@H]5NS(=O)(=O)O)[C@H](O)[C@H]4OS(=O)(=O)O)[C@H](O)[C@H]3NS(=O)(=O)O)[C@H](O)[C@H]2OS(=O)(=O)O)[C@H](O)[C@H]1NS(=O)(=O)O [HS8]
HBHA110–199 [2]; Average of Repeat I P(KKAA), residue 160-164, read-out: Dissociation constant from NMR cross-peak movement, average
  Kd: 24.5 µM
HBHA110–199 [2]; Average of Repeat II P(AKKAA), residue 165-170, read-out: Dissociation constant from NMR cross-peak movement, average
  Kd: 11.8 µM
HBHA110–199 [2]; Average of Repeat III P(AKKAA), residue 171-176, read-out: Dissociation constant from NMR cross-peak movement, average
  Kd: 6.9 µM
HBHA110–199 [2]; Average of Repeat IV P(AKKAAAKKA), residue 177-186, read-out: Dissociation constant from NMR cross-peak movement, average
  Kd: 6.2 µM
HBHA110–199 [2]; Average of Repeat V P(AKKAAAKKV), residue 187-196, read-out: Dissociation constant from NMR cross-peak movement, average
  Kd: 4.6 µM
HBHA110–199 [2]; protein-to-sugar molar ratio 1:2, all residues, reported previously, ref Huang et al., 2017
  average Δδresidue (weighted chemical shift deviation) of HBHA110–199: 0.019 ppm
HBHA110–199 [2]; residue A163, Repeat I, read-out: Dissociation constant from NMR cross-peak movement
  Kd: 20.7 µM
HBHA110–199 [2]; residue A164, Repeat I, read-out: Dissociation constant from NMR cross-peak movement
  Kd: 22.2 µM
HBHA110–199 [2]; residue A166, Repeat II, read-out: Dissociation constant from NMR cross-peak movement
  Kd: 14.4 µM
HBHA110–199 [2]; residue A169, Repeat II, read-out: Dissociation constant from NMR cross-peak movement
  Kd: 14.6 µM
HBHA110–199 [2]; residue A170, Repeat II, read-out: Dissociation constant from NMR cross-peak movement
  Kd: 8.3 µM
HBHA110–199 [2]; residue A172, Repeat III, read-out: Dissociation constant from NMR cross-peak movement
  Kd: 10.3 µM
HBHA110–199 [2]; residue A175, Repeat III, read-out: Dissociation constant from NMR cross-peak movement
  Kd: 8.5 µM
HBHA110–199 [2]; residue A176, Repeat III, read-out: Dissociation constant from NMR cross-peak movement
  Kd: 5 µM
HBHA110–199 [2]; residue A178, Repeat IV, read-out: Dissociation constant from NMR cross-peak movement
  Kd: 4.8 µM
HBHA110–199 [2]; residue A181, Repeat IV, read-out: Dissociation constant from NMR cross-peak movement
  Kd: 4.8 µM
HBHA110–199 [2]; residue A182, Repeat IV, read-out: Dissociation constant from NMR cross-peak movement
  Kd: 4.6 µM
HBHA110–199 [2]; residue A183, Repeat IV, read-out: Dissociation constant from NMR cross-peak movement
  Kd: 4.6 µM
HBHA110–199 [2]; residue A186, Repeat IV, read-out: Dissociation constant from NMR cross-peak movement
  Kd: 3.1 µM
HBHA110–199 [2]; residue A188, Repeat V, read-out: Dissociation constant from NMR cross-peak movement
  Kd: 4.8 µM
HBHA110–199 [2]; residue A191, Repeat V, read-out: Dissociation constant from NMR cross-peak movement
  Kd: 5.3 µM
HBHA110–199 [2]; residue A192, Repeat V, read-out: Dissociation constant from NMR cross-peak movement
  Kd: 4.6 µM
HBHA110–199 [2]; residue A193, Repeat V, read-out: Dissociation constant from NMR cross-peak movement
  Kd: 4.8 µM
HBHA110–199 [2]; residue K161, Repeat I, read-out: Dissociation constant from NMR cross-peak movement
  Kd: 9.8 µM
HBHA110–199 [2]; residue K162, Repeat I, read-out: Dissociation constant from NMR cross-peak movement
  Kd: 45.3 µM
HBHA110–199 [2]; residue K167, Repeat II, read-out: Dissociation constant from NMR cross-peak movement
  Kd: 4.2 µM
HBHA110–199 [2]; residue K168, Repeat II, read-out: Dissociation constant from NMR cross-peak movement
  Kd: 17.2 µM
HBHA110–199 [2]; residue K173, Repeat III, read-out: Dissociation constant from NMR cross-peak movement
  Kd: 4.2 µM
HBHA110–199 [2]; residue K174, Repeat III, read-out: Dissociation constant from NMR cross-peak movement
  Kd: 6.6 µM
HBHA110–199 [2]; residue K179, Repeat IV, read-out: Dissociation constant from NMR cross-peak movement
  Kd: 6.6 µM
HBHA110–199 [2]; residue K180, Repeat IV, read-out: Dissociation constant from NMR cross-peak movement
  Kd: 4.1 µM
HBHA110–199 [2]; residue K184, Repeat IV, read-out: Dissociation constant from NMR cross-peak movement
  Kd: 18.3 µM
HBHA110–199 [2]; residue K185, Repeat IV, read-out: Dissociation constant from NMR cross-peak movement
  Kd: 4.5 µM
HBHA110–199 [2]; residue K189, Repeat V, read-out: Dissociation constant from NMR cross-peak movement
  Kd: 5.9 µM
HBHA110–199 [2]; residue K190, Repeat V, read-out: Dissociation constant from NMR cross-peak movement
  Kd: 4.1 µM
HBHA110–199 [2]; residue K194, Repeat V, read-out: Dissociation constant from NMR cross-peak movement
  Kd: 4.9 µM
HBHA110–199 [2]; residue K195, Repeat V, read-out: Dissociation constant from NMR cross-peak movement
  Kd: 4.6 µM
HBHA110–199 [2]; residue V196, Repeat V, read-out: Dissociation constant from NMR cross-peak movement
  Kd: 2.7 µM
HBHA110–199 [1]; 25 °C, Tris buffer pH 7.6
  n (sugar-to-protein binding ratio): 0.56 ± 0.01
  ΔG: –7.68 ± 0.08 kcal/mol
  ΔH: 5.38 ± 0.05 kcal/mol
  –TΔS: –13.05 ± 0.07 kcal/mol
HBHA110–199 [1]; Tris buffer pH 7.6, 25 °C, two trials, average ± standard deviation, read-out: dissociation constant, KD
  Kd: 2.4 ± 0.3 µM
